Source: patent US4469795A, “Radioassay for monosialoglycosphingolipid (GM1) ganglioside concentration” (priority 1981, dated 1984)

Test system: iodotoxin binding to liver membranes
Parameters: species or system rat

Row | Substance | inhibition of iodotoxin binding to liver membranes by the unlabelled enterotoxin | reversal of inhibition of iodotoxin binding to liver membranes | inhibition of liver membrane toxin binding | time until binding of iodotoxin to GM1 ganglioside is complete
1 | cholera toxin | did not occur | greater than 92% |  | 
2 | monosialoglycosphingolipid GM1 ganglioside |  |  | greater than 94% | thirty
